In US12070505B2, “Targeted peptide-drug conjugates” (priority 2021, dated 2024):
≈ marks a conversion by molar mass, not a printed value.

Legend:
[1] = test system: gastric adenocarcinoma cells (AGS); assay: Cytotoxicity, MTS cell viability assay, AGS; conditions: 5 μM
Description: In Vitro Cytotoxicity Assay of Peptide-Drug Conjugates. […] In brief, CCRF-CEM cells were seeded at 50,000 cells in 0.1 mL per well in 98-well plates. In the case of other cell lines, the cells were seeded at 5,000 cells (0.1 mL per well in 96-well plates). […] Dox (5 μM) was used as a positive control, while water and cell culture medium were used as negative controls. The compounds were dissolved in water; water was used as a negative control to normalize the data. After the incubation period, MTS reagent (20 μL) was added to each well. The incubation was continued for 2 h. Cell viability was then determined by determination of the fluorescence intensity at 490 nm using a SpectraMax M2 microplate spectrophotometer. The percentage of cell viability was then calculated using the following equation: [(OD value of cells treated with the compound)−(OD value of culture medium)]/[(OD value of control cells)−(OD value of culture medium)]×100% (FIGS. 6-9).

MES-SA/MX2 cells = assay: LC50 by CCK-8 assay, Dox-resistant MES-SA/MX2; assay type: cell-based; conditions: FIG. 10: after 72 h
Description: (§1) Dox-resistant Cell Lines. Acquired resistance to Dox was induced in wild-type triple-negative breast cancer cell line MDA-MB-231 (MDA-231WT) as described before (Aliabadi, H. M.; et al. J. Control. Release 172:219-228, 2013, which is incorporated herein by reference). Briefly, MDA-231WT cells were exposed to Dox at an initial concentration of 0.05 μg/mL for one week or three consecutive expansions (whichever came later). […] Resistance induction was confirmed via calculation of LC50 following a sigmoidal effect model explained elsewhere (Bousoik, E.; et al. Front. Oncol. 9:1070, 2019, which is incorporated herein by reference) and determination of P-glycoprotein (P-gp) expression.
The cytotoxicity of the peptide-Dox conjugate in resistant triple-negative breast cancer and uterine sarcoma cell lines (MDA-231R, MDA-231WT, and MES-SA/MX2) was evaluated by a Cell Counting 8 (CCK8) KIT. The peptide-Dox conjugate was added to the cells in triplicate with different concentrations (0-40 μM). […] After this incubation period, 10 μL of CCK8 reagent was added to each well, and plates were incubated at the same conditions for 2 h. The absorbance of each well was determined at 450 nm using the SpectraMAX M5 microplate reader. […]
Efficiency in Dox-Resistant Cells. […] The cell viability was determined after this incubation period using the CCK-8 assay, as explained above. […]

H9C2 cells = assay: Cytotoxicity, MTS assay, normal heart muscle cells (Example 1); conditions: 5 μM
Description: In Vitro Cytotoxicity Assay of Peptide-Drug Conjugates. The cytotoxicity of the compounds was determined by using human leukemia cell line (CCRF-CEM), human ovarian adenocarcinoma cells (SKOV-3) cells, kidney cell line (LLC-PK1), gastric adenocarcinoma cells (AGS), and heart/myocardium cells (H9C2) to evaluate the toxicity of the generated peptides according to a previously reported procedure (Rahman, A.; et al. Proc. Am. Assoc. Cancer Res. 26:2295-2299, 1985, which is incorporated herein by reference). In brief, CCRF-CEM cells were seeded at 50,000 cells in 0.1 mL per well in 98-well plates. In the case of other cell lines, the cells were seeded at 5,000 cells (0.1 mL per well in 96-well plates). The cells were seeded in medium (RPMI-1640 containing FBS (10%)), 24 h prior to the experiment. The compounds at different concentrations (10-50 μM) were added to each well in triplicate and incubated for 24 and 72 h at 37° C. in a humidified atmosphere of 5% CO2. Dox (5 μM) was used as a positive control, while water and cell culture medium were used as negative controls. The compounds were dissolved in water; water was used as a negative control to normalize the data. After the incubation period, MTS reagent (20 μL) was added to each well. The incubation was continued for 2 h. Cell viability was then determined by determination of the fluorescence intensity at 490 nm using a SpectraMax M2 microplate spectrophotometer.

MDA-MB-231 cells = conditions: naïve MDA231 cells, previous study (Aliabadi et al, 2013); cited from earlier work
MDA-231WT cells = assay: LC50 by CCK-8 assay, wild-type cells; assay type: cell-based; conditions: MDA-231WT (wild type); FIG. 10: after 72 h
Description: as §1
The cytotoxicity of the peptide-Dox conjugate in resistant triple-negative breast cancer and uterine sarcoma cell lines (MDA-231R, MDA-231WT, and MES-SA/MX2) was evaluated by a Cell Counting 8 (CCK8) KIT. The peptide-Dox conjugate was added to the cells in triplicate with different concentrations (0-40 μM). Cells were incubated at 37° C. and 5% CO2 for 24 h. After this incubation period, 10 μL of CCK8 reagent was added to each well, and plates were incubated at the same conditions for 2 h. The absorbance of each well was determined at 450 nm using the SpectraMAX M5 microplate reader. After subtracting the signal from blank wells that contain medium without cells in the plate with CCK-8 solution added, the results were normalized to cells treated with normal saline (considered as 100%)
Efficiency in Dox-Resistant Cells. In order to compare the cytotoxic effect of free and peptide-conjugated Dox in Dox-resistant cells, MDA-231WT (as a Dox-sensitive cell line as control) and MDA-231R and MES-SA/MX2 cells as Dox-resistant cells were exposed to a wide range of Dox (or Dox-equivalent for the peptide-conjugated drug) concentrations (0.05-40 μM). Cells were seeded in 96-well plates with approximately 50% confluency and were incubated for 24 h in 37° C. and 5% CO2. […] The cell viability was determined after this incubation period using the CCK-8 assay, as explained above. […]

COc1cccc2c1C(=O)c1c(O)c3c(c(O)c1C2=O)C[C@@](O)(C(=O)CO)C[C@@H]3O[C@H]1C[C@H](N)[C@H](O)[C@H](C)O1 [Dox, doxorubicin, reference compound]
Cell Viability (%) after 24 h [1]: 54 ± 2% | Cell Viability (%) after 72 h [1]: 13 ± 3% | reduction of cell survival ([1]; 24 h): 46% | reduction of cell survival/viability ([1]; 72 h): 87% | CC50 (MES-SA/MX2 cells): 41 µM | reduction of cell survival (H9C2 cells; H9C2, 24 h): 20% | reduction of cell survival (H9C2 cells; H9C2, 72 h): 44% | reduction of cell survival (H9C2 cells; H9C2, 96 h): 44% | reduction of viability of heart cells (H9C2 cells; H9C2, time not stated): 44% | Cell Viability (%) after 24 h (H9C2 cells; normal heart H9C2): 80 ± 2% | Cell Viability (%) after 72 h (H9C2 cells; normal heart H9C2): 56 ± 3% | Cell Viability (%) after 96 h (H9C2 cells; normal heart H9C2): 56 ± 1% | LC50 (MDA-MB-231 cells): 0.3 µg/mL (≈ 0.552 µM) | CC50 (MDA-231WT cells): 0.45 µM
